Reference: PubChem BioAssay AID2060908 (Molecular Pharmacology Branch, DTP, NCI, 2025)

Test system: 186277-243-T-J2-PDC complex spheroids, viability
Assay: Anticancer human tumor 186277-243-T-J2-PDC patient-derived colon adenocarcinoma cell line growth inhibition [RAS]
Settings: for IC50: curve of first compound; for viability, T/C: stronger effect = lower value
Method in brief: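 Multi-cell-type spheroids: tumor cells plus HUVEC endothelial cells and mesenchymal stem cells. RAS-pathway inhibitors were combined with targeted agents, each dosed in half-log steps down from clinical Cmax, or from 10 microM when Cmax was unknown.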

[1] = second compound 0.00316 µM, first compound 0.00316 µM
[2] = second compound 0.00316 µM, first compound 0.01 µM
[3] = second compound 0.00316 µM, first compound 0.0316 µM
[4] = second compound 0.00316 µM, first compound 0.1 µM
[5] = second compound 0.01 µM, first compound 0.00316 µM
[6] = second compound 0.01 µM, first compound 0.01 µM
[7] = second compound 0.01 µM, first compound 0.0316 µM
[8] = second compound 0.01 µM, first compound 0.1 µM
[9] = second compound 0.0316 µM, first compound 0.00316 µM
[10] = second compound 0.0316 µM, first compound 0.01 µM
[11] = second compound 0.0316 µM, first compound 0.0316 µM
[12] = second compound 0.0316 µM, first compound 0.1 µM
[13] = second compound 0.1 µM, first compound 0.00316 µM
[14] = second compound 0.1 µM, first compound 0.01 µM
[15] = second compound 0.1 µM, first compound 0.0316 µM
[16] = second compound 0.1 µM, first compound 0.1 µM
[17] = second compound 0.316 µM, first compound 0.00316 µM
[18] = second compound 0.316 µM, first compound 0.01 µM
[19] = second compound 0.316 µM, first compound 0.0316 µM
[20] = second compound 0.316 µM, first compound 0.1 µM
[21] = second compound 1 µM, first compound 0.00316 µM
[22] = second compound 1 µM, first compound 0.01 µM
[23] = second compound 1 µM, first compound 0.0316 µM
[24] = second compound 1 µM, first compound 0.1 µM
[25] = second compound 0.00316 µM, first compound 0.316 µM
[26] = second compound 0.00316 µM, first compound 1 µM
[27] = second compound 0.01 µM, first compound 0.316 µM
[28] = second compound 0.01 µM, first compound 1 µM
[29] = second compound 0.0316 µM, first compound 0.316 µM
[30] = second compound 0.0316 µM, first compound 1 µM
[31] = second compound 0.1 µM, first compound 0.316 µM
[32] = second compound 0.1 µM, first compound 1 µM
[33] = second compound 0.316 µM, first compound 0.316 µM
[34] = second compound 0.316 µM, first compound 1 µM
[35] = second compound 1 µM, first compound 0.316 µM
[36] = second compound 1 µM, first compound 1 µM
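Further: spheroids exposed to compounds for 7 days before viability read.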

For `CC(C)n1nc(-c2ccc3oc(N)nc3c2)c2c(N)ncnc21` + C=CC(=O)N1CCN(c2nc(OCC3CCCN3C)nc3c(F)c(-c4nc(N)cc(C)c4C(F)(F)F)c(Cl)cc23)C(C)C1, the IC50 (second compound 0.00316 µM) was 85.1 nM, the IC50 (second compound 0.01 µM) was > 100 nM and the IC50 (second compound 0.0316 µM) was > 100 nM. The IC50 (second compound 0.1 µM) was 97.6 nM, the IC50 (second compound 0.316 µM) was 95.1 nM and the IC50 (second compound 1 µM) was 80.3 nM. For the same compound, the viability, T/C (second compound 0.00316 µM, first compound 0.000316 µM) was 109%, the viability, T/C (second compound 0.00316 µM, first compound 0.001 µM) was 92.1% and the viability, T/C [1] was 91.1%. For the same compound, the viability, T/C [2] was 80.4%, the viability, T/C [3] was 90.1% and the viability, T/C [4] was 43.5%. It also gave a viability, T/C (second compound 0.01 µM, first compound 0.000316 µM) of 97.6%, a viability, T/C (second compound 0.01 µM, first compound 0.001 µM) of 96.7% and a viability, T/C [5] of 82.5%. For the same compound, the viability, T/C [6] was 106%, the viability, T/C [7] was 77.7% and the viability, T/C [8] was 51.4%. It also gave a viability, T/C (second compound 0.0316 µM, first compound 0.000316 µM) of 95.1%, a viability, T/C (second compound 0.0316 µM, first compound 0.001 µM) of 104% and a viability, T/C [9] of 80.3%. The viability, T/C [10] was 123%, the viability, T/C [11] was 89.8% and the viability, T/C [12] was 56.8%. For the same compound, the viability, T/C (second compound 0.1 µM, first compound 0.000316 µM) was 94.5%, the viability, T/C (second compound 0.1 µM, first compound 0.001 µM) was 106% and the viability, T/C [13] was 108%. The viability, T/C [14] was 91%, the viability, T/C [15] was 90.8% and the viability, T/C [16] was 48.5%. For the same compound, the viability, T/C (second compound 0.316 µM, first compound 0.000316 µM) was 92.5%, the viability, T/C (second compound 0.316 µM, first compound 0.001 µM) was 106% and the viability, T/C [17] was 94%. For the same compound, the viability, T/C [18] was 93.9%, the viability, T/C [19] was 97.4% and the viability, T/C [20] was 48%. The viability, T/C (second compound 1 µM, first compound 0.000316 µM) was 109%, the viability, T/C (second compound 1 µM, first compound 0.001 µM) was 101% and the viability, T/C [21] was 84.6%. The viability, T/C [22] was 113%, the viability, T/C [23] was 82.5% and the viability, T/C [24] was 42.5%.
`CCN1CCN(Cc2ccc(Nc3ncc(F)c(-c4cc(F)c5nc(C)n(C(C)C)c5c4)n3)nc2)CC1` + C=CC(=O)N1CCN(c2nc(OCC3CCCN3C)nc3c(F)c(-c4nc(N)cc(C)c4C(F)(F)F)c(Cl)cc23)C(C)C1 was tested, and the IC50 (second compound 0.00316 µM) was > 1000 nM, the IC50 (second compound 0.01 µM) was > 1000 nM and the IC50 (second compound 0.0316 µM) was > 1000 nM. The IC50 (second compound 0.1 µM) was > 1000 nM, the IC50 (second compound 0.316 µM) was > 1000 nM and the IC50 (second compound 1 µM) was > 1000 nM. The viability, T/C [1] was 136%, the viability, T/C [2] was 129% and the viability, T/C [3] was 141%. The viability, T/C [4] was 114%, the viability, T/C [25] was 125% and the viability, T/C [26] was 99.5%. The viability, T/C [5] was 87.9%, the viability, T/C [6] was 108% and the viability, T/C [7] was 127%. The viability, T/C [8] was 99.7%, the viability, T/C [27] was 121% and the viability, T/C [28] was 92.9%. The viability, T/C [9] was 94.6%, the viability, T/C [10] was 107% and the viability, T/C [11] was 119%. For the same compound, the viability, T/C [12] was 154%, the viability, T/C [29] was 114% and the viability, T/C [30] was 101%. It also gave a viability, T/C [13] of 101%, a viability, T/C [14] of 112% and a viability, T/C [15] of 142%. It also gave a viability, T/C [16] of 149%, a viability, T/C [31] of 138% and a viability, T/C [32] of 79.3%. For the same compound, the viability, T/C [17] was 90.3%, the viability, T/C [18] was 106% and the viability, T/C [19] was 117%. The viability, T/C [20] was 115%, the viability, T/C [33] was 152% and the viability, T/C [34] was 97.8%. For the same compound, the viability, T/C [21] was 117%, the viability, T/C [22] was 112% and the viability, T/C [23] was 122%. It also gave a viability, T/C [24] of 140%, a viability, T/C [35] of 135% and a viability, T/C [36] of 105%.
For `C[C@@H](NC(=O)c1ncnc(N)c1Cl)c1ncc(C(=O)Nc2cc(C(F)(F)F)c(Cl)cn2)s1` + C=CC(=O)N1CCN(c2nc(OCC3CCCN3C)nc3c(F)c(-c4nc(N)cc(C)c4C(F)(F)F)c(Cl)cc23)C(C)C1, the IC50 (second compound 0.00316 µM) was > 10000 nM, the IC50 (second compound 0.01 µM) was > 10000 nM and the IC50 (second compound 0.0316 µM) was > 10000 nM. For the same compound, the IC50 (second compound 0.1 µM) was > 10000 nM, the IC50 (second compound 0.316 µM) was > 10000 nM and the IC50 (second compound 1 µM) was > 10000 nM. For the same compound, the viability, T/C [3] was 102%, the viability, T/C [4] was 104% and the viability, T/C [25] was 73.2%. It also gave a viability, T/C [26] of 86.2%, a viability, T/C (second compound 0.00316 µM, first compound 3.16 µM) of 93.9% and a viability, T/C (second compound 0.00316 µM, first compound 10 µM) of 106%. For the same compound, the viability, T/C [7] was 80.8%, the viability, T/C [8] was 83.8% and the viability, T/C [27] was 114%. It also gave a viability, T/C [28] of 89.5%, a viability, T/C (second compound 0.01 µM, first compound 3.16 µM) of 126% and a viability, T/C (second compound 0.01 µM, first compound 10 µM) of 71.2%. It also gave a viability, T/C [11] of 104%, a viability, T/C [12] of 113% and a viability, T/C [29] of 84.3%. It also gave a viability, T/C [30] of 97.4%, a viability, T/C (second compound 0.0316 µM, first compound 3.16 µM) of 122% and a viability, T/C (second compound 0.0316 µM, first compound 10 µM) of 72.2%. The viability, T/C [15] was 86.4%, the viability, T/C [16] was 103% and the viability, T/C [31] was 103%. For the same compound, the viability, T/C [32] was 95.1%, the viability, T/C (second compound 0.1 µM, first compound 3.16 µM) was 121% and the viability, T/C (second compound 0.1 µM, first compound 10 µM) was 97.3%. The viability, T/C [19] was 103%, the viability, T/C [20] was 92.3% and the viability, T/C [33] was 95.5%. It also gave a viability, T/C [34] of 87%, a viability, T/C (second compound 0.316 µM, first compound 3.16 µM) of 104% and a viability, T/C (second compound 0.316 µM, first compound 10 µM) of 84.7%. For the same compound, the viability, T/C [23] was 104%, the viability, T/C [24] was 82% and the viability, T/C [35] was 82.4%. It also gave a viability, T/C [36] of 92.1%, a viability, T/C (second compound 1 µM, first compound 3.16 µM) of 91.2% and a viability, T/C (second compound 1 µM, first compound 10 µM) of 89.8%.
